Drawing on ChEMBL document CHEMBL2040775, “Evaluation of novel antioxidant triterpenoid saponins from the halophyte Salicornia herbacea” (Bioorg Med Chem Lett, 2012), this text covers Activity and IC50 for seven compounds.

Broadly, the IC50 is the concentration needed to halve the response being measured.

Type in all cases: functional
Assay [1] can be described thus: Antioxidant activity assessed as morpholinosydnonimine-derived peroxynitrite free radical scavenging activity at 50 ug/ml after 5 mins by spectrophotometry.
The nature of assay [2]: Antioxidant activity assessed as morpholinosydnonimine-derived peroxynitrite free radical scavenging activity after 5 mins by spectrophotometry.
Assay [3] can be described thus: Antioxidant activity assessed as authentic peroxynitrite radical scavenging activity after 5 mins by spectrophotometry.
A short description of assay [4]: Antioxidant activity assessed as authentic peroxynitrite radical scavenging activity at 50 ug/ml after 5 mins by spectrophotometry.
Assay [5] has as its system Radical scavenging activity. Put plainly: Antioxidant activity assessed as DPPH radical scavenging activity after 30 mins by spectrophotometry. A general note: Loss of DPPH colour is used to gauge radical scavenging.
The test system of assay [6] is Radical scavenging activity. In words: Antioxidant activity assessed as DPPH radical scavenging activity at 100 ug/ml after 30 mins by spectrophotometry.
Assay [7] relates to Radical scavenging activity. In words: Antioxidant activity assessed as DPPH radical scavenging activity a 50 ug/ml after 30 mins by spectrophotometry.
Assay [8] relates to Radical scavenging activity. Put plainly: Antioxidant activity assessed as DPPH radical scavenging activity at 10 ug/ml after 30 mins by spectrophotometry.

The structures appear in SMILES notation. The source made the active and inactive calls. The rule behind the calls is not given here. Bounds are passed on as bounds.

Take `CC1(C)CC[C@]2(C(=O)O[C@@H]3O[C@H](CO)[C@@H](O)[C@H](O)[C@H]3O)CC[C@]3(C)C(=CC[C@@H]4[C@@]5(C)CC[C@H](O[C@@H]6O[C@H](C(=O)O)[C@@H](O)[C@H](O)[C@H]6O)[C@@](C)(C=O)[C@@H]5CC[C@]43C)[C@@H]2C1`: the result in assay [1] and in assay [4] was Active. For the same compound, the half-maximal inhibitory concentration (IC50) was 1.4 µM in assay [2], 7.1 µM in assay [3] and more than 500 µM in assay [5].
Regarding `C=C1CC[C@]2(C(=O)O[C@@H]3O[C@H](CO)[C@@H](O)[C@H](O)[C@H]3O)CC[C@]3(C)C(=CC[C@@H]4[C@@]5(C)CC[C@H](O[C@@H]6O[C@H](C(=O)O)[C@@H](O)[C@H](O)[C@H]6O)[C@@](C)(CO)[C@@H]5CC[C@]43C)[C@@H]2C1`, the result in assay [1] and in assay [4] was Active. Further, the IC50 in assay [2] is less than 1 µM; in assay [3], less than 1 µM; in assay [5], 390 µM.
As to `Cc1cc(C(C)(C)C)c(O)c(C(C)(C)C)c1` [BUTYLATED HYDROXYTOLUENE], the Activity in assay [6] was 68%; in assay [7] it was 54.9%; in assay [8], 39.7%. Also, in assay [5], the IC50 is less than 200 µM.
Take `CC1(C)CC[C@]2(C(=O)O)CC[C@]3(C)C(=CC[C@@H]4[C@@]5(C)CC[C@H](O[C@@H]6O[C@H](C(=O)O)[C@@H](O)[C@H](O)[C@H]6O)[C@@](C)(C=O)[C@@H]5CC[C@]43C)[C@@H]2C1`: the result in assay [1] and in assay [4] was Active. The IC50 in assay [2] was 20.4 µM; in assay [3], 21.9 µM; in assay [5], more than 500 µM.
For `O=C1O[C@H]([C@@H](O)CO)C(O)=C1O` [ASCORBIC ACID], the results for the Activity in assay [6], in assay [7] and in assay [8] were 95%, 95.1% and 94.9%, respectively. In addition, the figures for the IC50 in assay [2], in assay [3] and in assay [5] were less than 1 µM, 1.5 µM and less than 20 µM, respectively.
As for `C=C1CC[C@]2(C(=O)O[C@@H]3O[C@H](CO)[C@@H](O)[C@H](O)[C@H]3O)CC[C@]3(C)C(=CC[C@@H]4[C@@]5(C)CC[C@H](O[C@@H]6O[C@H](C(=O)O)[C@@H](O)[C@H](O)[C@H]6O)[C@@](C)(C=O)[C@@H]5CC[C@]43C)[C@@H]2C1`, the outcome in assay [1] and in assay [4] was Active. The IC50 in assay [2] is 6.6 µM; in assay [3], 4.9 µM; in assay [5] it was more than 500 µM.
Regarding `CC(C)(S)[C@@H](N)C(=O)O` [PENICILLAMINE], the IC50 in assay [2] and in assay [3] was less than 1 µM each time.
